Patent US9872882B2, “Aurantiamide dipeptide derivatives for treatment or prevention of angiogenesis-related diseases” (Mackay Medical College, priority 2015, dated 2018)

Assays:
[1] = test system: hyperoxia-induced retinal neovascularization; experiment: Oxygen-induced retinopathy (OIR) model; assay type: in vivo, BALB/c-nude mice; details: retinal whole mounts, FIG. 5
From the text: The mouse model of OIR has been widely used to induce retinal neovascularization in studies related to retinal ischaemic diseases, including AMD, and in studies evaluating the efficacy of antiangiogenic compounds. Briefly, BALB/c-nude mice at postnatal day (P7) are subjected to hyperoxia (75% oxygen) along with their nursing dam for 5 days (P12), and then to room air to produce retinal neovascularization. Neovascularization occurs upon return to normoxia and peaks at P17. All of the mice in the OR model were perfusion fixed via left ventricular puncture at the time of euthanasia, with 5 ml rhodamine-conjugated dextran. Then, angiography of retinal vasculature was performed and retinal whole mounts were prepared to score features of retinopathy.

[2] = test system: VEGF-induced microvessel formation; experiment: Directed in vivo angiogenesis assay (DIVAA); design: species or system C57BL/6 mice; details: VEGF-containing DIVAA tubes implanted in mice, 15 days, FIG. 3B
Description: Surgical silicone tubes were filled at 4° C. with Matrigel containing VEGF with or without Fmoc-10a. Then, the dorsal haunches of the anesthetized mice (C57BL/6 mice) were shaved and sterile prepped. A 5 mm cutaneous incision was made and a 10 mm deep subcutaneous pocket was created with a sterile hemostat. DIVAA tubes were incubated at 37° C. for 1 hour to allow gel formation and then implanted into the dorsal flank of mice. After 15 days, DIVAA tubes were taken and photographed. Neovessels were quantified by measuring the hemoglobin of the plug with the Drabkin method. All procedures involving animal experiment were approved by the Institutional Animal Care and Use Committee at Mackay Medical College.

[3] = test system: VEGF release from B16F10 melanoma cells; experiment: VEGF ELISA assay; assay type: cell-based, mouse; details: B16F10, 24 hr, ELISA of supernatant, FIG. 4B
Description: (§1) Mouse melanoma cell line (B16F10) was obtained from American Type Culture Collection (ATCC, Manassas, Va.) and cultured in DMEM containing 10% FBS, penicillin (100 units/ml), streptomycin (100 μg/ml), and L-glutamine (2[…]mM). Cells were maintained in humidified air containing 5% CO2 at 37° C.
B16F10 cells were treated with various concentrations of Fmoc-10a or vehicle for 24 hr, and then the supernatant was collected to examine the amount of vascular endothelial growth factor (VEGF) protein. VEGF mouse ELISA Kit (Novex, Invitrogen) was used according to the manufacturer's instructions.

[4] = test system: early EPCs; experiment: Early EPC chemotaxis assay (Transwell); assay type: cell-based, human; details: 4 hours, FIG. 2C
Description: The chemotactic motility of early EPCs was evaluated using a Transwell. The lower filter surface was coated with gelatin. Fmoc-10a in presence or absence of MV2 complete medium was placed in the lower wells. The chamber was incubated at 37° C. for 4 hours. Cells were fixed with cold methanol and stained with 0.5% crystal violet.

[5] = test system: B16F10 melanoma cells; experiment: Matrigel invasion assay; assay type: cell-based, mouse; details: B16F10, 16 h, FIG. 4A
Description: as §1
The upper side of the filters was coated with Matrigel (BD Biosciences, Bedford, Mass.) at a concentration of 125 […]μg/cm^2. B16F10 cells (5×10^4 cells/well) were seeded onto the upper chamber with serum-free medium, then incubated in the bottom chamber with culture medium containing 10% FBS in the absence or presence of Fmoc-10a. After 16 h of treatment, cells on the upper side of the filters were mechanically removed, and those migrated on the lower side were fixed with 4% formaldehyde, then stained with 0.5% crystal violet for 10 min. Finally, invaded cells were quantified by counting the number of stained cells in 10 random fields with the inverted phase contrast microscope and photographed.

[6] = test system: late EPCs; experiment: Transwell cell migration assay; assay type: cell-based, human; details: 16 h treatment, FIG. 1D
Description: This investigation conforms with the principles outlined in the Declaration of Helsinki for use of human tissue. Ethical approval was granted by the Institutional Review Board of the Mackay Memorial Hospital, Taipei, Taiwan. Informed consent was obtained from healthy donors before the collection of peripheral blood (80 mL). The peripheral blood mononuclear cells (PBMCs) were fractionated from other blood components by centrifugation on Ficoll-Paque™ plus (GE Healthcare) according to the manufacturer's instructions. CD34-positive progenitor cells were obtained and cultured. In brief, the cells were isolated from PBMCs using CD34 MicroBead kit and MACSTM Cell Separation System (all from Miltenyi Biotec). CD34-positive EPCs were maintained in MV2 complete medium (PromoCell) consisting of endothelial basal medium, 20% fetal bovine serum, hEGF, VEGF, hFGF-B, IGF-1, ascorbic acid, and heparin. […]
EPCs (5×10^4 cells/well) were seeded onto the upper chamber with MV2 complete medium, then incubated in the bottom chamber with MV2 complete medium containing 2% FBS with the indicated concentrations of Fmoc-10. […] Cell migration was quantified by counting the number of stained cells in 10 random fields with the inverted phase contrast microscope and photographed.

[7] = test system: late EPCs; experiment: Cytotoxicity assay (LDH release); assay type: cell-based, human; details: 48 h, even at high concentration (30 μM), FIG. 1C
Description: (§2) This investigation conforms with the principles outlined in the Declaration of Helsinki for use of human tissue. Ethical approval was granted by the Institutional Review Board of the Mackay Memorial Hospital, Taipei, Taiwan. Informed consent was obtained from healthy donors before the collection of peripheral blood (80 mL). The peripheral blood mononuclear cells (PBMCs) were fractionated from other blood components by centrifugation on Ficoll-Paque™ plus (GE Healthcare) according to the manufacturer's instructions. CD34-positive progenitor cells were obtained and cultured. In brief, the cells were isolated from PBMCs using CD34 MicroBead kit and MACSTM Cell Separation System (all from Miltenyi Biotec). CD34-positive EPCs were maintained in MV2 complete medium (PromoCell) consisting of endothelial basal medium, 20% fetal bovine serum, hEGF, VEGF, hFGF-B, IGF-1, ascorbic acid, and heparin. 1×10^6 cells/cm^2 were seeded on fibronectin-coated dish (BD Biosciences) and maintained in 37° C. incubator under a humidified 95% air and 5% CO2 atmosphere.
EPCs were treated with MV2 complete medium containing 2% FBS for 48 h in the absence or presence of Fmoc-10a. The percentage of LDH release was calculated from the ratio of LDH activity in the medium to LDH activity in the cell lysate after Fmoc-10a treatment.

[8] = test system: early EPCs; experiment: Colony-forming assay (CFU-Hill); assay type: cell-based, human; details: FIGS. 2A&2B
From the text: Isolated PBMCs are resuspended in MV2 complete medium. After 2 days, the nonadherent cells were collected and replated onto a fibronectin-coated 24-well plate. Five days later, the number of colony-forming units (CFUs) od early EPCs per well was counted.

[9] = test system: late EPCs; experiment: Cell proliferation assay (MTT); assay type: cell-based, human; details: 48 h treatment, FIG. 1B
Description: as §2
EPCs (5×10^3 cells/well) were seeded onto 96-well plates. After 24 h incubation, the culture medium was removed and cells were incubated with fresh MV2 complete medium containing 2% FBS for 48 h in the absence or presence of Fmoc-10a. […] Formazan crystal was lysed by dimethyl sulfoxide (DMSO) and absorbance was measured at 550 nm with ELISA-reader.

[10] = test system: B16F10 cells; experiment: Experimental metastasis model; assay type: in vivo, C57BL/6 mice; details: B16F10 tail vein; 1.5 or 4.5 mg/kg intraperitoneally every day, FIG. 4D
Description: B16F10 cells (2×10^6) were slowly injected into the lateral tail vein of C57BL/6 mice to initiate tumor metastasis. Fmoc-10a (1.5 or 4.5 mg/kg) was intraperitoneally administered to mice every day from 3 days before tumor cell injection to 21 days after tumor cell injection (the day sacrificed).

[11] = test system: late EPCs; experiment: Capillary tube formation assay on Matrigel; assay type: cell-based, human; details: 16 h treatment, FIG. 1E
Description: as §2
Matrigel (BD Biosciences, Bedford, Mass.), which was used to promote the differentiation of EPCs into a capillary tube-like structure, was added to 48-well plates. […] Tube formation was quantified by measuring the long axis of each tube in 3 random fields per well by using Image-Pro Plus software.

[12] = test system: B16F10 melanoma; experiment: Subcutaneous xenograft model; assay type: in vivo, C57BL/6 mice; details: daily intraperitoneal injection, FIG. 4C
Description: B16F10 cells (2×10^6) in a volume of 100 μL were injected subcutaneously into the right flank of the C57BL/6 mice. After 9 days, when tumors reached 2 mm in diameter, the mice were randomly given vehicle or the indicated doses of Fmoc-10a daily by intraperitoneal injection. Tumor size and body weight were measured every day. The tumor volume was calculated according to the following formula: V=(length×width^2/2). In accordance with the Animal Ethics Committee, the experiments should be stopped when an unbearable situation appeared in animals.

[13] = test system: VEGF-induced vessels sprouting from aortic rings; experiment: Aortic ring sprouting assay (ex vivo); design: species or system Sprague-Dawley rats; details: VEGF 20 ng/ml, day 8, FIG. 3A
Description: Aortas were harvested from 8- to 10-week-old Sprague-Dawley rats. Following a complete washing, the aortas were cut into 1 mm ring segments. The aortic rings were placed in the 48-well plates which were pre-coated with 130 μl Matrigel and polymerized at 37° C. The wells were subsequently overlaid with another 50 μl Matrigel for sealing. VEGF (20 ng/ml) with or without Fmoc-10a was then added to the well. The cultured medium was changed every 3 days. Sprouting endothelial cells were observed and photographed on day 8. The area of sprouting vessels was measured quantitatively by Image-Pro Plus software.

Avastin: Avastin (10 μg) was used as positive control in the OIR model [reference compound]
hyperoxia-induced pathological neovascularization in mice [1]: significantly blocks hyperoxia-induced pathological neovascularization

CC(C)[C@H](NC(=O)OCC1c2ccccc2-c2ccccc21)C(=O)N[C@@H](CO)Cc1ccccc1 [Fmoc-10a, (9H-fluoren-9-yl)methyl (S)-1-((R)-1-hydroxy-3-phenylpropan-2-ylamino)-3-methyl-1-oxobutan-2-ylcarbamate]
microvessel formation in the Matrigel plugs (hemoglobin content) [2]: attenuated concentration-dependently microvessel formation | production of VEGF in melanoma cells [3]: significantly inhibits | chemotaxis of early EPCs [4]: markedly suppresses chemotaxis | cell invasion of melanoma cells [5]: significantly inhibits cell invasion | cell migration of late EPCs [6]: significantly inhibits cell migration | LDH release of late EPCs [7]: does not induce LDH release | CFU-Hill colonies of early EPCs [8]: significantly inhibits CFU-Hill colonies | cell proliferation of late EPCs [9]: suppresses cell proliferation of late EPCs in a concentration-dependent manner | lung metastasis of melanoma cancer (pulmonary colony number) [10]: substantially suppresses lung metastasis | tube formation of late EPCs [11]: significantly inhibits | tumor growth of melanoma cells [12]: potently blocks tumor growth of melanoma cells in a dose-dependent manner | hyperoxia-induced pathological neovascularization in mice [1]: significantly blocks hyperoxia-induced pathological neovascularization | VEGF-induced vessels sprouting from aortic rings [13]: dramatically abrogated VEGF-induced vessels sprouting
